Source: US11780826B2 (Amgen Inc., priority 2017, dated 2023)

tested on: Bovine cardiac myofibrils; experiment: In vitro model of dose-dependent myofibril ATPase modulation (AC1.4, pyruvate kinase/lactate dehydrogenase-coupled ATPase assay at pCa25); assay type: biochemical; details: concentration at which ATPase activity was 1.4-fold higher than the bottom of the dose curve, mean of a minimum of two independent tests
Procedure, shortened: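 ATP turnover tracked as NADH absorbance loss at 340 nm, coupled via pyruvate kinase/lactate dehydrogenase, with 1 mM ATP, 2 mM MgCl2 and 12 mM K-PIPES at pH 6.80 (22° C) under EGTA/CaCl2 calcium buffering. Substrate was detergent-treated bovine cardiac myofibrils; 4-parameter curve fit, AC1.4 averaged over at least two runs.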

Compound | AC1.4 [µM]
O=C(N[C@@H](c1ccc(C(F)(F)F)cc1F)C1CC1)[C@H]1CCCN1C(=O)c1cccc(C2(F)CN(S(=O)(=O)C3COC3)C2)c1 [Example 451, N-((R)-cyclopropyl(2-fluoro-4-(trifluoromethyl)phenyl)methyl)-1-(3-(3-fluoro-1-(3-oxetanylsulfonyl)-3-azetidinyl)benzoyl)-D-prolinamide] | 1.8635
Cc1ccc(C(C)NC(=O)[C@H]2CCCN2C(=O)[C@H]2CCCN(S(=O)(=O)N3CC(C#N)C3)C2)cc1 (stereo partly drawn) [Example 452, (2R)-1-((S)-1-((3-cyanoazetidin-1-yl)sulfonyl)piperidine-3-carbonyl)-N-(1-(p-tolyl)ethyl)pyrrolidine-2-carboxamide] | 1.8655
CC[C@@H](NC(=O)[C@H]1CCCN1C(=O)c1cccc(S(C)(=O)=O)c1)c1cc(F)c(Cl)cc1F [Example 453, N-((1R)-1-(4-chloro-2,5-difluorophenyl)propyl)-1-(3-(methylsulfonyl)benzoyl)-D-prolinamide] | 1.5515
O=C(NCc1ccc(C(F)(F)F)cc1)[C@H]1CCCN1C(=O)c1cccc(S(=O)(=O)Cc2ccccc2)c1 [Example 454, 1-(3-(benzylsulfonyl)benzoyl)-N-(4-(trifluoromethyl)benzyl)-D-prolinamide] | 1.8665
C[C@H](C(=O)NCc1cccc(C(F)(F)F)c1)N(C)C(=O)c1cccc(S(=O)(=O)N2CC(C#N)C2)c1 [Example 455, 3-((3-cyano-1-azetidinyl)sulfonyl)-N-methyl-N-((1R)-1-methyl-2-oxo-2-((3-(trifluoromethyl)benzyl)amino)ethyl)benzamide] | 1.877
N#CC1(c2cccc(C(=O)N3[C@@H](C(=O)N[C@@H](c4ccc(C(F)(F)F)cc4F)C4COC4)C[C@H]4C[C@H]43)c2)CC1 [Example 456, (1R,3R,5R)-2-(3-(1-cyanocyclopropyl)benzoyl)-N-((R)-(2-fluoro-4-(trifluoromethyl)phenyl)(3-oxetanyl)methyl)-2-azabicyclo[3.1.0]hexane-3-carboxamide] | 1.882
COc1ccc(CNC(=O)[C@H]2CCCN2C(=O)[C@H]2CCCN(S(=O)(=O)N3CC(C#N)C3)C2)cc1F [Example 457, 1-(((3S)-1-((3-cyano-1-azetidinyl)sulfonyl)-3-piperidinyl)carbonyl)-N-(3-fluoro-4-methoxybenzyl)-D-prolinamide] | 1.8865
Cc1cc(C(=O)N2[C@@H](C(=O)N[C@@H](c3ccc(C(F)(F)F)cc3F)C3CC3)C[C@H]3C[C@H]32)c(NC2CC2)cn1 [Example 458, (1R,3R,5R)-2-((5-(cyclopropylamino)-2-methyl-4-pyridinyl)carbonyl)-N-((R)-cyclopropyl(2-fluoro-4-(trifluoromethyl)phenyl)methyl)-2-azabicyclo[3.1.0]hexane-3-carboxamide] | 1.5845
CN(C)S(=O)(=O)c1cccc(C(=O)N2CCC[C@@H]2C(=O)NCc2ccc(C(F)(F)F)cc2F)c1 [Example 459, 1-(3-(dimethylsulfamoyl)benzoyl)-N-(2-fluoro-4-(trifluoromethyl)benzyl)-D-prolinamide] | 1.8995
N#CC1CC(S(=O)(=O)c2cccc(C(=O)N3CCCC[C@@H]3C(=O)NCc3ccc(C(F)(F)F)nc3)c2)C1 (stereo partly drawn) [Example 460, (R)-1-(3-((3-cyanocyclobutyl)sulfonyl)benzoyl)-N-((6-(trifluoromethyl)pyridin-3-yl)methyl)piperidine-2-carboxamide] | 1.915
O=C(NCc1ccc(C(F)(F)F)cc1)[C@H]1CCCN1C(=O)c1cccc(S(=O)(=O)N2CC(F)(F)C2)c1 [Example 461, 1-((3-((3,3-difluoro-1-azetidinyl)sulfonyl)phenyl)carbonyl)-N-(4-(trifluoromethyl)benzyl)-D-prolinamide] | 1.9174
C[C@H](NC(=O)[C@H]1CCCN1C(=O)[C@H]1CCCN(S(=O)(=O)N2CC(C#N)C2)C1)c1ccc(Cl)c(F)c1 [Example 462, N-((1S)-1-(4-chloro-3-fluorophenyl)ethyl)-1-(((3S)-1-((3-cyano-1-azetidinyl)sulfonyl)-3-piperidinyl)carbonyl)-D-prolinamide] | 1.9235
O=C(NCc1ccc(C(F)(F)F)cc1)[C@H]1CCCN1C(=O)[C@H]1CCCN(S(=O)(=O)N2CC(F)(c3ccccc3)C2)C1 [Example 463, 1-(((3S)-1-((3-fluoro-3-phenyl-1-azetidinyl)sulfonyl)-3-piperidinyl)carbonyl)-N-(4-(trifluoromethyl)benzyl)-D-prolinamide] | 1.9305
CS(=O)(=O)c1ccc(F)c(C(=O)N2CCC[C@@H]2C(=O)N[C@@H](c2ccc(C(F)(F)F)cc2F)C2CC2)c1 [Example 464, N-((R)-cyclopropyl(2-fluoro-4-(trifluoromethyl)phenyl)methyl)-1-(2-fluoro-5-(methylsulfonyl)benzoyl)-D-prolinamide] | 1.612
C[C@@H](NC(=O)[C@H]1CCCN1C(=O)[C@H]1CCCN(S(=O)(=O)N2CC(C#N)C2)C1)c1cccc(C(F)(F)F)c1 [Example 465, 1-(((3S)-1-((3-cyano-1-azetidinyl)sulfonyl)-3-piperidinyl)carbonyl)-N-((1R)-1-(3-(trifluoromethyl)phenyl)ethyl)-D-prolinamide] | 1.9455
C[C@@H](NC(=O)[C@H]1CCCN1C(=O)c1cccc(S(=O)(=O)N2CC(C)(O)C2)c1)c1ccc(C(F)(F)F)cc1 [Example 466, 1-(3-((3-hydroxy-3-methyl-1-azetidinyl)sulfonyl)benzoyl)-N-((1R)-1-(4-(trifluoromethyl)phenyl)ethyl)-D-prolinamide] | 1.961
O=C(NCc1ccc(C(F)(F)F)cc1)[C@H]1CCCN1C(=O)[C@H]1CCCN(S(=O)(=O)N2CC(O)(C(F)(F)F)C2)C1 [Example 467, 1-(((3S)-1-((3-hydroxy-3-(trifluoromethyl)-1-azetidinyl)sulfonyl)-3-piperidinyl)carbonyl)-N-(4-(trifluoromethyl)benzyl)-D-prolinamide] | 1.9675
CC[C@H](NC(=O)[C@H]1CCCN1C(=O)[C@H]1CCCN(S(=O)(=O)N2CC(C#N)C2)C1)c1cc(F)cc(F)c1 [Example 468, 1-(((3S)-1-((3-cyano-1-azetidinyl)sulfonyl)-3-piperidinyl)carbonyl)-N-((1S)-1-(3,5-difluorophenyl)propyl)-D-prolinamide] | 1.9855
O=C(NCc1ccc(C(F)(F)F)cc1)[C@H]1CCCN1C(=O)[C@H]1CCCN(S(=O)(=O)N2CC(Nc3ccc(F)cc3)C2)C1 [Example 469, 1-(((3S)-1-((3-((4-fluorophenyl)amino)-1-azetidinyl)sulfonyl)-3-piperidinyl)carbonyl)-N-(4-(trifluoromethyl)benzyl)-D-prolinamide] | 1.9915
N#CC1CN(S(=O)(=O)N2CC[C@H](C(=O)N3CCC[C@@H]3C(=O)NCc3ccc(C(F)(F)F)cc3F)C2)C1 [Example 470, 1-(((3S)-1-((3-cyano-1-azetidinyl)sulfonyl)-3-pyrrolidinyl)carbonyl)-N-(2-fluoro-4-(trifluoromethyl)benzyl)-D-prolinamide] | 1.9915
O=C(N[C@@H](c1cc(F)c(Cl)cc1F)C1COC1)[C@H]1C[C@H]2C[C@H]2N1C(=O)c1cc(C2CC2)ccn1 [Example 471, (1R,3R,5R)-N-((R)-(4-chloro-2,5-difluorophenyl)(3-oxetanyl)methyl)-2-((4-cyclopropyl-2-pyridinyl)carbonyl)-2-azabicyclo[3.1.0]hexane-3-carboxamide] | 1.996
Cc1ccc(C(=O)N2[C@@H](C(=O)N[C@@H](c3cc(F)c(Cl)cc3F)C3COC3)C[C@H]3C[C@H]32)cc1S(C)(=O)=O [Example 472, (1R,3R,5R)-N-((R)-(4-chloro-2,5-difluorophenyl)(3-oxetanyl)methyl)-2-(4-methyl-3-(methylsulfonyl)benzoyl)-2-azabicyclo[3.1.0]hexane-3-carboxamide] | 1.807
O=C1NCCCCC1NS(=O)(=O)N1CCC[C@H](C(=O)N2CCC[C@@H]2C(=O)NCc2ccc(C(F)(F)F)cc2)C1 (stereo partly drawn) [Example 473, (2R)-1-((3S)-1-(N-(2-oxoazepan-3-yl)sulfamoyl)piperidine-3-carbonyl)-N-(4-(trifluoromethyl)benzyl)pyrrolidine-2-carboxamide] | 2.035
COC1CCN(S(=O)(=O)c2cccc(C(=O)N3CCC[C@@H]3C(=O)NCc3ccc(C(F)(F)F)cc3)c2)CC1 [Example 474, 1-((3-((4-methoxy-1-piperidinyl)sulfonyl)phenyl)carbonyl)-N-(4-(trifluoromethyl)benzyl)-D-prolinamide] | 2.036
CS(=O)(=O)c1cccc(C(=O)N2CC3(CCC3)[C@@H]2C(=O)N[C@@H](c2ccc(C(F)(F)F)cc2F)C2CC2)c1 [Example 475, (1R)-N-((R)-cyclopropyl(2-fluoro-4-(trifluoromethyl)phenyl)methyl)-2-(3-(methylsulfonyl)benzoyl)-2-azaspiro[3.3]heptane-1-carboxamide] | 1.866
O=C(O[C@@H]1CC(C(=O)N[C@@H](c2cc(F)c(Cl)cc2F)C2COC2)N(C(=O)c2ccnc(C(F)F)c2)C1)c1ccnc(C(F)F)c1 (stereo partly drawn) [Example 476, (3R,5R)-5-(((R)-(4-chloro-2,5-difluorophenyl)(3-oxetanyl)methyl)carbamoyl)-1-((2-(difluoromethyl)-4-pyridinyl)carbonyl)-3-pyrrolidinyl2-(difluoromethyl)-4-pyridinecarboxylate] | 2.071
O=C(NCc1ccc(C(F)(F)F)cc1)[C@H]1CCCN1C(=O)[C@H]1CCCN(S(=O)(=O)N2CC(c3ccc(F)cc3)C2)C1 [Example 477, 1-(((3S)-1-((3-(4-fluorophenyl)-1-azetidinyl)sulfonyl)-3-piperidinyl)carbonyl)-N-(4-(trifluoromethyl)benzyl)-D-prolinamide] | 2.0765
